Columns and labels:
[1] = test system: DSS-induced colitis; assay: DSS-induced murine model of colitis; assay type: in vivo, mice (C57/B6)
Text: DSS-induced colitis model was generated as described previously (Alex et al., 2009; Alex et al., 2010). […] The fact that mutations in either IL-10 or IL-10 receptors in human lead to spontaneous Crohn's disease at very early age (usually less than 1 year old) (Glocker et al., 2011), further emphasize the critical role of IL-10 signaling pathway in its anti-inflammatory and immune-modulatory effects in the gut and the homeostasis of healthy gut.

[2] = molecular target: T1, PSMA (Mus musculus, UniProt O35409); assay: GCPII (PSMA) ex vivo activity assay on mucosa extract of DSS colitis mice; assay type: biochemical; conditions: DSS-treated mice, extract from mucosa; FIG. 4
T1 construct: from tissue; host or cells: colonic or cecal mucosa of C57/B6 mice with DSS-induced colitis (sonicated tissue lysate supernatant)
T1 sequence (O35409 whole entry): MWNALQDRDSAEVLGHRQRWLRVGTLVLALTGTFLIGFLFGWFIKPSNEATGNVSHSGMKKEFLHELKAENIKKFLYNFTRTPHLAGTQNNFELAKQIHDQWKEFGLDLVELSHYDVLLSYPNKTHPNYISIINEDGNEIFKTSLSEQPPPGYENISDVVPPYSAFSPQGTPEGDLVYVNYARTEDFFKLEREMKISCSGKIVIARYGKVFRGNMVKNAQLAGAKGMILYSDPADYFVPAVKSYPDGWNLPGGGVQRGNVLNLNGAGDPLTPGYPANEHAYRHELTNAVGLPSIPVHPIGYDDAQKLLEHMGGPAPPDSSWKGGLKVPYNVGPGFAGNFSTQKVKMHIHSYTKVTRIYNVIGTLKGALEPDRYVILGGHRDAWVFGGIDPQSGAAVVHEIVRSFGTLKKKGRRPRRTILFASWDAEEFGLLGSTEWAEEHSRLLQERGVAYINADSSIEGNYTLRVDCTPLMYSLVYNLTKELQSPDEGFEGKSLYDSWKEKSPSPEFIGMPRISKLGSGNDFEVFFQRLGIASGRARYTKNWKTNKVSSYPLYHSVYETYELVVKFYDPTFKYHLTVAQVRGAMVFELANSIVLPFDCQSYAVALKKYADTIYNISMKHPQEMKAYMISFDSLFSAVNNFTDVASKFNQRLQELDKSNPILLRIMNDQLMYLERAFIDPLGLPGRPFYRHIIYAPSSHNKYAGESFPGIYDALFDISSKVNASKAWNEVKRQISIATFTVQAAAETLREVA
Description: On the day of the ex vivo experiment, the tissues were weighed and immersed in 0.5 ml of ice-cold 50 mM Tris Buffer (pH 7.7 at RT). While on ice, each tissue was sonicated for 30-60 seconds (medium output, 60) via use of a Kontes Ultrasonic Cell Disrupter. After a 2 min spin at 13,000 rpm, supernatants were analyzed for protein content (Dc Protein Assay Kit; Bio Rad). NAAG-hydrolyzing activity measurements were carried out, based on published procedures Robinson et al., 1987; Rojas et al., 2002). Briefly, the reaction mixture (total volume of 50 μL) contained NAA[3H]G (70 nM, 50 Ci/mmol) and tissue lysates (7 concentrations each, tested in quadruplicate), in Tris-HCl (pH 7.4, 40 mM) containing 1 mM CoCl2. Assay standards were comprised of human recombinant GCPII enzyme (40-200 pM, final). The reaction was carried out at 37° C. for 40-45 min and stopped with ice-cold sodium phosphate buffer (pH 7.4, 0.1 M, 50 μL). Blanks were obtained by incubating the reaction mixture in the absence of enzyme source. A 90 μL aliquot from each terminated reaction was transferred to a well in a 96-well spin column containing AG1X8 ion-exchange resin; the plate was centrifuged at 1500 rpm for 5 min using a Beckman GS-6R centrifuge equipped with a PTS-2000 rotor. […] The radioactivity corresponding to [3H]-G was determined with a scintillation counter (Topcount NXT, Packard, counting efficiency 80%). […]

[3] = test system: spontaneous colitis in IL-10 KO mice; assay: IL-10 knockout mice with spontaneous colitis; assay type: in vivo, mice (C57/B6)
[4] = 2-PMPA 100 mg/kg i.p., daily for 8 days, DSS mice, 2 h after dosing on day 8
Description: Blood and colonic mucosa were collected for drug PK analysis. Plasma was generated from blood by centrifugation and all samples were stored at −80° C. until further analysis. Concentrations of inhibitors in plasma and tissue were determined via LC/MS/MS as described previously (Rais et al., 2013). Briefly, 2-PMPA was extracted from plasma and tissue by protein precipitation with 5× methanol containing 2-(phosphonomethyl) succinic acid (2-PMSA; 1 μM) as an internal standard. The samples were vortexed (30 s) and centrifuged (10,000 g for 10 min). Supernatant was dried under a gentle stream of nitrogen at 45° C. and the residue was reconstituted with 100 μL of acetonitrile and vortexed. 50 μL of derivatizing agent N-tert-Butyldimethysilyl-N-methyltrifluoro-acetamide (MTBSTFA) was added to microcentrifuge tubes, vortexed, and heated at approximately 60° C. for 40 min. At the end of 40 min, the derivatized samples were analyzed via LC/MS/MS. Chromatographic analysis was performed using an Accela™ ultra high-performance system consisting of an analytical pump, and an autosampler coupled with TSQ Vantage mass spectrometer (Thermo Fisher Scientific Inc., Waltham Mass.). […] The [M+H]+ ion transitions of derivatized 2-PMPA at m/z 683.0>551.4 and that of the internal standard at m/z 669.0>537.2 were monitored with the total run time of 5 min. […]

Row | SMILES | Disease activity index (DAI) ([1]; DSS 2.5%, 7 days in drinking water, 2-PMPA 100 mg/kg given simultaneously, vs vehicle, P<0.05, FIG. 3) | size and weight of spleen ([1]; DSS-induced murine model of colitis, FIG. 5) | spleen inflammation ([1]; mice with DSS-colitis, FIG. 5) | PSMA activity in the colonic and cecal mucosa [2] | mice with complete retraction of prolapse ([3]; 2 of the 20 IL-10 KO mice treated, 100 mg/kg for 2 weeks, FIG. 6D) | disease severity (macroscopic disease, colonic hypotrophy, stool consistency) ([3]; IL-10 KO mice, 3 month old, 2-PMPA 100 mg/kg for 2 weeks, FIGS. 6A-6B) | body weight of prolapse-retracting mice ([3]; compared to untreated control IL-10 KO mice, FIG. 6C) | 2-PMPA concentration in plasma and colon [4] | colon shortening of DSS-colitis mice ([1]; oral administration, n=5 per group, P 0.06, not statistically significant, FIG. 9)
1 | O=C(O)CCC(CP(=O)(O)O)C(=O)O (stereo not drawn) [2-PMPA, 2-(phosphonomethyl)-pentanedioic acid] | ameliorates disease activity | reduces | significantly reduced | potently inhibited | 10% | significantly reduced | increased dramatically | approximately 25 μM | 
2 | CC(C)OC(=O)OCOC(=O)C(CCC(=O)O)CP(=O)(OCOC(=O)OC(C)C)OCOC(=O)OC(C)C (stereo not drawn) [Tris-POC-2-PMPA] |  |  |  |  |  |  |  |  | reversed

— patent US10849915B2, “Methods for treating inflammatory bowel disease using prostate specific membrane antigen (PSMA) inhibitors” (The Johns Hopkins University, priority 2014, dated 2020)
